The term IC95 denotes the point of the concentration-response curve where the effect stands at 95%. High values mean weaker potency, low ones greater potency.

A value given as a limit tells only on which side of the number the result lay.

The test system of this experiment is HIV. The experiment is described as follows: Assay for inhibition of HIV replication (spread assay; acute HIV infection of T-lymphoid cells). In kind it is cell-based. The note with it: Human immunodeficiency virus 1, tested up to 1 micromolar. Here is the method: Assay for Inhibition of HIV Replication
Assays for the inhibition of acute HIV infection of T-lymphoid cells were conducted in accordance with Vacca, J. P. et al., Proc. Natl. Acad. Sci. USA 1994, 91: 4096. […] The compounds of Examples 6, 8, 9, 14, 15, 21-23 and 29-35 were also tested in the spread assay up to 1 micromolar, but specific IC95 values were not obtained; i.e., the IC95 values for these compounds are greater than 1 micromolar.
For the compound `O=C(NCc1ccc(F)cc1)c1nc2ccccn2c(=O)c1O` [Example 1, N-(4-Fluorobenzyl)-3-hydroxy-4-oxo-4H-pyrido[1,2-a]pyrimidine-2-carboxamide], the concentration for an effect of 95% (IC95) is less than 1000 nM.
Compound `CN(C(=O)CS(C)(=O)=O)c1cccn2c(=O)c(O)c(C(=O)NCc3ccc(F)cc3)nc12` [Example 2, N-(4-fluorobenzyl)-3-hydroxy-9-{methyl[(methylsulfonyl)acetyl]amino}-4-oxo-4H-pyrido[1,2-a]pyrimidine-2-carboxamide] showed an IC95 of less than 1000 nM.
In turn, `CCN(CC)C(=O)C(=O)N(CC)c1cccn2c(=O)c(O)c(C(=O)NCc3ccc(F)cc3)nc12` [Example 3, N-(4-fluorobenzyl)-3-hydroxy-9-[(N,N,N′-triethyl)-ethanediamide]-4-oxo-4H-pyrido[1,2-a]pyrimidine-2-carboxamide] showed an IC95 of less than 1000 nM.
In the case of `O=C(NCc1ccc(F)cc1)c1nc2c(OCc3ccccc3)cccn2c(=O)c1O` [Example 4, N-(4-fluorobenzyl)-3-hydroxy-9-(benzyloxy)-4-oxo-4H-pyrido[1,2-a]pyrimidine-2-carboxamide], the IC95 was less than 1000 nM.
Consider `O=C(NCc1ccc(F)cc1)c1nc2ccc(-c3ccccc3N3CCOCC3)cn2c(=O)c1O` [Example 5], for which the IC95 is less than 1000 nM.
In the case of `CC(=O)N(C)c1cccn2c(=O)c(O)c(C(=O)NCc3ccc(F)cc3)nc12` [Example 6, 9-[acetyl(methyl)amino]-N-(4-fluorobenzyl)-3-hydroxy-4-oxo-4H-pyrido[1,2-a]pyrimidine-2-carboxamide] it was greater than 1000 nM; in that of `CN(C(=O)c1ccccc1)c1cccn2c(=O)c(O)c(C(=O)NCc3ccc(F)cc3)nc12` [Example 7, 9-[benzoyl(methyl)amino]-N-(4-fluorobenzyl)-3-hydroxy-4-oxo-4H-pyrido[1,2-a]pyrimidine-2-carboxamide], less than 1000 nM; in that of `CNc1cccn2c(=O)c(O)c(C(=O)NCc3ccc(F)cc3)nc12` [Example 8, 9-[methylamino]-N-(4-fluorobenzyl)-3-hydroxy-4-oxo-4H-pyrido[1,2-a]pyrimidine-2-carboxamide], greater than 1000 nM.
`CN(C)c1cccn2c(=O)c(O)c(C(=O)NCc3ccc(F)cc3)nc12` [Example 9, 9-[dimethylamino]-N-(4-fluorobenzyl)-3-hydroxy-4-oxo-4H-pyrido[1,2-a]pyrimidine-2-carboxamide]: the 95% effect concentration (IC95) is greater than 1000 nM.
For the compound `CCNc1cccn2c(=O)c(O)c(C(=O)NCc3ccc(F)cc3)nc12` [Example 10, 9-[ethylamino]-N-(4-fluorobenzyl)-3-hydroxy-4-oxo-4H-pyrido[1,2-a]pyrimidine-2-carboxamide], the IC95 is less than 1000 nM.
Compound `CN(C)C(=O)C(=O)N(C)c1cccn2c(=O)c(O)c(C(=O)NCc3ccc(F)cc3)nc12` [Example 11, N-(2-{[(4-fluorobenzyl)amino]carbonyl}-3-hydroxy-4-oxo-4H-pyrido[1,2-a]pyrimidin-9-yl)-N,N′,N′-trimethylethanediamide] returned an IC95 of less than 1000 nM.
For the compound `CCN(C(=O)C(=O)N(C)C)c1cccn2c(=O)c(O)c(C(=O)NCc3ccc(F)cc3)nc12` [Example 12, N-(2-{[(4-fluorobenzyl)amino]carbonyl}-3-hydroxy-4-oxo-4H-pyrido[1,2-a]pyrimidin-9-yl)-N-ethyl-N′,N′-dimethylethanediamide], the 95% effect concentration (IC95) is less than 1000 nM.
The compound `O=C(Nc1cccn2c(=O)c(O)c(C(=O)NCc3ccc(F)cc3)nc12)OCc1ccccc1` [Example 13, benzyl (2-{[(4-fluorobenzyl)amino]carbonyl}-3-hydroxy-4-oxo-4H-pyrido[1,2-a]pyrimidin-9-yl)carbamate] gave an IC95 of less than 1000 nM.
Compound `O=C(Nc1cccn2c(=O)c(O)c(C(=O)NCc3ccc(F)cc3)nc12)c1ccccc1` [Example 14, 9-[benzoylamino]-N-(4-fluorobenzyl)-3-hydroxy-4-oxo-4H-pyrido[1,2-a]pyrimidine-2-carboxamide] showed a concentration for an effect of 95% (IC95) greater than 1000 nM.
As to `CCN(C(=O)c1ccncc1)c1cccn2c(=O)c(O)c(C(=O)NCc3ccc(F)cc3)nc12` [Example 15, 9-[ethyl(isonicotinoyl)amino]-N-(4-fluorobenzyl)-3-hydroxy-4-oxo-4H-pyrido[1,2-a]pyrimidine-2-carboxamide], the IC95 is greater than 1000 nM.
In the case of `CCN(C(=O)c1ccccn1)c1cccn2c(=O)c(O)c(C(=O)NCc3ccc(F)cc3)nc12` [Example 16, 9-[ethyl(pyridin-2-ylcarbonyl)amino]-N-(4-fluorobenzyl)-3-hydroxy-4-oxo-4H-pyrido[1,2-a]pyrimidine-2-carboxamide] it was less than 1000 nM; in that of `CCCN(C(=O)C(=O)N(C)C)c1cccn2c(=O)c(O)c(C(=O)NCc3ccc(F)cc3)nc12` [Example 17, N-(2-{[(4-fluorobenzyl)amino]carbonyl}-3-hydroxy-4-oxo-4H-pyrido[1,2-a]pyrimidin-9-yl)-N-propyl-N′,N′-dimethylethanediamide], less than 1000 nM.
`CC(C)CN(C(=O)C(=O)N(C)C)c1cccn2c(=O)c(O)c(C(=O)NCc3ccc(F)cc3)nc12` [Example 18, N-(2-{[(4-fluorobenzyl)amino]carbonyl}-3-hydroxy-4-oxo-4H-pyrido[1,2-a]pyrimidin-9-yl)-N-isobutyl-N′,N′-dimethylethanediamide] gave an IC95 of less than 1000 nM.
In the case of `CCN(C(=O)C(=O)N1CCOCC1)c1cccn2c(=O)c(O)c(C(=O)NCc3ccc(F)cc3)nc12` [Example 19, N-(4-fluorobenzyl)-3-hydroxy-9-{ethyl[morpholin-4-yl(oxo)acetyl]amino}-4-oxo-4H-pyrido[1,2-a]pyrimidine-2-carboxamide] it was less than 1000 nM.
Consider `CCN(C(=O)CN(C)C)c1cccn2c(=O)c(O)c(C(=O)NCc3ccc(F)cc3)nc12` [Example 20, 9-[(N,N-dimethylglycyl)(ethyl)amino]-N-(4-fluorobenzyl)-3-hydroxy-4-oxo-4H-pyrido[1,2-a]pyrimidine-2-carboxamide], for which the IC95 is less than 1000 nM.
In the case of `CCN(CC)CC(=O)N(CC)c1cccn2c(=O)c(O)c(C(=O)NCc3ccc(F)cc3)nc12` [Example 21, 9-[(N,N-diethylglycyl)(ethyl)amino]-N-(4-fluorobenzyl)-3-hydroxy-4-oxo-4H-pyrido[1,2-a]pyrimidine-2-carboxamide] it was greater than 1000 nM.
In turn, `CCN(C(=O)CN1CCOCC1)c1cccn2c(=O)c(O)c(C(=O)NCc3ccc(F)cc3)nc12` [Example 22, 9-[ethyl(morpholin-4-ylacetyl)amino]-N-(4-fluorobenzyl)-3-hydroxy-4-oxo-4H-pyrido[1,2-a]pyrimidine-2-carboxamide] returned an IC95 greater than 1000 nM.
In the case of `CCN(C(=O)CN1CCN(C)CC1)c1cccn2c(=O)c(O)c(C(=O)NCc3ccc(F)cc3)nc12` [Example 23, 9-{ethyl[(4-methylpiperazin-1-yl)acetyl]amino}-N-(4-fluorobenzyl)-3-hydroxy-4-oxo-4H-pyrido[1,2-a]pyrimidine-2-carboxamide] it was greater than 1000 nM.
The compound `CCN(C(=O)c1cscn1)c1cccn2c(=O)c(O)c(C(=O)NCc3ccc(F)cc3)nc12` [Example 24, 9-[ethyl(1,3-thiazol-4-ylcarbonyl)amino]-N-(4-fluorobenzyl)-3-hydroxy-4-oxo-4H-pyrido[1,2-a]pyrimidine-2-carboxamide] gave a concentration for an effect of 95% (IC95) of less than 1000 nM.

These data come from US7939537B2, “HIV integrase inhibitors” (Istituto Di Ricerche Di Biologia Molecolare P. Angeletti …, priority 2006, dated 2011).
